Experimental data published in PubChem BioAssay AID2060627 (Molecular Pharmacology Branch, DTP, NCI, 2025).

System: 156681-154-R-J1-PDC complex spheroid viability
Assay: Anticancer human tumor 156681-154-R-J1-PDC patient-derived melanoma cell line growth inhibition [CLK]
Settings: for IC50: curve of first compound; for viability, T/C: stronger effect = lower value
Procedure, shortened: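 Patient-derived tumor cells grown as complex spheroids with HUVEC endothelial cells and mesenchymal stem cells, treated with drug combinations. Concentrations descend in half-log steps from near clinical Cmax, or from 10 microM if Cmax unknown.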

[1] = second compound 0.0316 µM, first compound 0.0316 µM
[2] = second compound 0.0316 µM, first compound 0.1 µM
[3] = second compound 0.0316 µM, first compound 0.316 µM
[4] = second compound 0.0316 µM, first compound 1 µM
[5] = second compound 0.0316 µM, first compound 3.16 µM
[6] = second compound 0.0316 µM, first compound 10 µM
[7] = second compound 0.1 µM, first compound 0.0316 µM
[8] = second compound 0.1 µM, first compound 0.1 µM
[9] = second compound 0.1 µM, first compound 0.316 µM
[10] = second compound 0.1 µM, first compound 1 µM
[11] = second compound 0.1 µM, first compound 3.16 µM
[12] = second compound 0.1 µM, first compound 10 µM
[13] = second compound 0.316 µM, first compound 0.0316 µM
[14] = second compound 0.316 µM, first compound 0.1 µM
[15] = second compound 0.316 µM, first compound 0.316 µM
[16] = second compound 0.316 µM, first compound 1 µM
[17] = second compound 0.316 µM, first compound 3.16 µM
[18] = second compound 0.316 µM, first compound 10 µM
[19] = second compound 1 µM, first compound 0.0316 µM
[20] = second compound 1 µM, first compound 0.1 µM
[21] = second compound 1 µM, first compound 0.316 µM
[22] = second compound 1 µM, first compound 1 µM
[23] = second compound 1 µM, first compound 3.16 µM
[24] = second compound 1 µM, first compound 10 µM
[25] = second compound 3.16 µM, first compound 0.0316 µM
[26] = second compound 3.16 µM, first compound 0.1 µM
[27] = second compound 3.16 µM, first compound 0.316 µM
[28] = second compound 3.16 µM, first compound 1 µM
[29] = second compound 3.16 µM, first compound 3.16 µM
[30] = second compound 3.16 µM, first compound 10 µM
[31] = second compound 10 µM, first compound 0.0316 µM
[32] = second compound 10 µM, first compound 0.1 µM
[33] = second compound 10 µM, first compound 0.316 µM
[34] = second compound 10 µM, first compound 1 µM
[35] = second compound 10 µM, first compound 3.16 µM
[36] = second compound 10 µM, first compound 10 µM
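Also: spheroids exposed to the agents for seven days.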
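For viability, T/C in this document: 100% = DMSO vehicle control viability.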

`C#Cc1c(F)ccc2cc(O)cc(-c3ncc4c(N5CC6CCC(C5)N6)nc(OCC56CCCN5CC(F)C6)nc4c3F)c12` (centres undefined) + CNC(=O)c1ccc(Nc2nc(OC3CCCC3)c3c(-c4ccc5nc(C)oc5c4)c[nH]c3n2)c(OC)c1 was tested, and the IC50 (second compound 0.0316 µM) was over 10000 nM, the IC50 (second compound 0.1 µM) was over 10000 nM and the IC50 (second compound 0.316 µM) was over 10000 nM. For the same molecule, the IC50 (second compound 1 µM) was 114 nM, the IC50 (second compound 3.16 µM) was under 31.6 nM and the IC50 (second compound 10 µM) was under 31.6 nM. The viability, T/C [1] was 86%, the viability, T/C [2] was 94.4% and the viability, T/C [3] was 104%. It also gave a viability, T/C [4] of 109%, a viability, T/C [5] of 113% and a viability, T/C [6] of 101%. For the same molecule, the viability, T/C [7] was 53.5%, the viability, T/C [8] was 73.8% and the viability, T/C [9] was 60.3%. The viability, T/C [10] was 70%, the viability, T/C [11] was 73.6% and the viability, T/C [12] was 62.9%. The viability, T/C [13] was 62.4%, the viability, T/C [14] was 48.6% and the viability, T/C [15] was 66.4%. For the same molecule, the viability, T/C [16] was 65.9%, the viability, T/C [17] was 67% and the viability, T/C [18] was 65.2%. It also gave a viability, T/C [19] of 43.2%, a viability, T/C [20] of 53.5% and a viability, T/C [21] of 47.9%. It also gave a viability, T/C [22] of 56%, a viability, T/C [23] of 63.6% and a viability, T/C [24] of 31.6%. The viability, T/C [25] was 54.5%, the viability, T/C [26] was 49.8% and the viability, T/C [27] was 39.2%. It also gave a viability, T/C [28] of 49.8%, a viability, T/C [29] of 50.4% and a viability, T/C [30] of 20.2%. It also gave a viability, T/C [31] of 45.7%, a viability, T/C [32] of 38.5% and a viability, T/C [33] of 36.7%. The viability, T/C [34] was 50%, the viability, T/C [35] was 43% and the viability, T/C [36] was 13.2%.

With `CC(CO)NC(=O)c1cc(-c2ccc(Cl)cc2)nn(-c2cnn(C)c2)c1=O` (centres undefined) + CNC(=O)c1ccc(Nc2nc(OC3CCCC3)c3c(-c4ccc5nc(C)oc5c4)c[nH]c3n2)c(OC)c1 the IC50 (second compound 0.0316 µM) was over 10000 nM, the IC50 (second compound 0.1 µM) was over 10000 nM and the IC50 (second compound 0.316 µM) was 4910 nM. It also gave an IC50 (second compound 1 µM) of under 31.6 nM, an IC50 (second compound 3.16 µM) of under 31.6 nM and an IC50 (second compound 10 µM) of under 31.6 nM. The viability, T/C [1] was 83.5%, the viability, T/C [2] was 107% and the viability, T/C [3] was 122%. The viability, T/C [4] was 101%, the viability, T/C [5] was 86.5% and the viability, T/C [6] was 56.8%. The viability, T/C [7] was 53.1%, the viability, T/C [8] was 84.6% and the viability, T/C [9] was 78.9%. For the same molecule, the viability, T/C [10] was 81.7%, the viability, T/C [11] was 67.2% and the viability, T/C [12] was 50.6%. The viability, T/C [13] was 62.9%, the viability, T/C [14] was 71.4% and the viability, T/C [15] was 58.8%. It also gave a viability, T/C [16] of 58.8%, a viability, T/C [17] of 59.3% and a viability, T/C [18] of 38.2%. The viability, T/C [19] was 50.8%, the viability, T/C [20] was 42.9% and the viability, T/C [21] was 37.6%. For the same molecule, the viability, T/C [22] was 44.8%, the viability, T/C [23] was 39.2% and the viability, T/C [24] was 35.3%. For the same molecule, the viability, T/C [25] was 47.4%, the viability, T/C [26] was 36.9% and the viability, T/C [27] was 42.1%. It also gave a viability, T/C [28] of 36.7%, a viability, T/C [29] of 37.8% and a viability, T/C [30] of 23.2%. The viability, T/C [31] was 42.6%, the viability, T/C [32] was 43.8% and the viability, T/C [33] was 35.8%. For the same molecule, the viability, T/C [34] was 35.6%, the viability, T/C [35] was 29.5% and the viability, T/C [36] was 21.2%.
